# Measured values published in patent US7863271B2, “2-aminobenzoxazole carboxamides as 5HT3 modulators” (Albany Molecular Research, Inc., priority 2006, dated 2011).
# pKi: −log10 of the molar value. Where a name gives a salt, the structure may show the parent alone.
# Molecular target: T1, 5-HT3 (Homo sapiens, UniProt P46098)
# T1 sequence (P46098 24-478): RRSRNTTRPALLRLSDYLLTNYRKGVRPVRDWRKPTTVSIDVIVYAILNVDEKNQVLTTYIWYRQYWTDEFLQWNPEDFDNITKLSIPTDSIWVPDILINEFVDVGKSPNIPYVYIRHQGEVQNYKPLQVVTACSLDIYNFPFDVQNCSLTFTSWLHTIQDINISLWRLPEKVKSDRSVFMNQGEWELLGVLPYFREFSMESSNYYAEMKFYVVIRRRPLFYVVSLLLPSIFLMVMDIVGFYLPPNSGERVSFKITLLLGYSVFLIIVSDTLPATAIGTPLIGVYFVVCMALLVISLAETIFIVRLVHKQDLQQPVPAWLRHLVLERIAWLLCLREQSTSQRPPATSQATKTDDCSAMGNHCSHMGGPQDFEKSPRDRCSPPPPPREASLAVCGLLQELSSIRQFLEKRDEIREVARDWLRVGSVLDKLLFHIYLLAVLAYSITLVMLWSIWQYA
# Experiment: Compound affinity for the human 5-HT3 receptor (Assay B), SPA radioligand binding with [9-methyl-3H]BRL-43694
# Design: purchased Perkin Elmer
# Details: not given
# Protocol: Compound Affinity for the human 5-HT3 Receptor (Assay B)
# The relative affinity of the various compounds for the human 5-HT3 receptor was measured in a radioligand binding assay, using a scintillation proximity assay (SPA) format. Test compounds were dissolved to 10 mM in 100% DMSO, then serially diluted at 10× assay concentrations in 100% DMSO in 96-well polypropylene plates and further diluted to 4× assay concentrations with the assay buffer. […] Binding reactions were set up in wells of PicoPlates-96 (Perkin Elmer) by adding consecutively 50 μL of each competing compound or buffer, SPA beads, the radioligand and 5-HT3 receptor membranes. After 60-min incubation at room temperature on a Nutator mixer, plates were centrifuged for 15 min at 1,500 rpm, followed by incubation in the dark for 30 min. Radioactivity was counted in the TopCount microplate counter (Perkin Elmer) for 5 min. […] Specific binding was determined by subtracting nonspecific binding from total binding. All experiments were performed in duplicate using ten concentrations of a competing ligand, with ondansetron included as a control in every run. IC50 values were determined from specific binding data using XLfit4.1 curve fitting software from IDBS Ltd. Ki values were then calculated from the Cheng-Prusoff equation.
row,Compound,pKi
1,"CN1C[C@H]2C[C@H](NC(=O)c3cccc4oc(Nc5ccccc5)nc34)C[C@@H](C1)N2C [Example 52, Exo-N-(3,9-Dimethyl-3,9-diazabicyclo[3.3.1]nonan-7-yl)-2-(phenylamino)benzoxazole-4-carboxamide Hydrochloride]",7.56

# Same assay, conditions: Assay B (method B unless otherwise annotated); read-out: 5-HT3 Ki
row,Compound,pKi
1,"CN1[C@@H]2CCC[C@H]1C[C@@H](NC(=O)c1cccc3oc(NCCN4CCOCC4)nc13)C2 [Example 33, Endo-N-(9-Methyl-9-azabicyclo[3.3.1]nonan-3-yl)-2-(2-morpholinoethylamino)benzoxazole-4-carboxamide Trihydrochloride]",6.77
2,"CNc1nc2c(C(=O)N[C@H]3C[C@H]4CCC[C@@H](C3)N4C)cccc2o1 [Example 34, Endo-N-(9-Methyl-9-azabicyclo[3.3.1]non-3-yl)-2-(methylamino)benzoxazole-4-carboxamide Hydrochloride]",8.28
3,"CN1[C@@H]2CCC[C@H]1C[C@@H](NC(=O)c1cccc3oc(N)nc13)C2 [Example 35, Endo-N-(9-Methyl-9-azabicyclo[3.3.1]non-3-yl)-2-aminobenzoxazole-4-carboxamide Hydrochloride]",8.04
4,"CC[C@H]1COCCN1c1nc2c(C(=O)NC3CC4CCCC(C3)N4C)cccc2o1 (stereo partly drawn) [Example 36, Endo-N-(9-Methyl-9-azabicyclo[3.3.1]nonan-3-yl)-2-((S)-3-ethylmorpholine)benzoxazole-4-carboxamide Hydrochloride]",8.33
5,"CN1C2CCCC1CC(NC(=O)c1cccc3oc(NC4CC5CCCC(C4)N5C)nc13)C2 (stereo not drawn) [Example 37, Endo-N-(9-Methyl-9-azabicyclo[3.3.1]nonan-3-yl)-2-(9-Methyl-9-azabicyclo[3.3.1]non-3-ylamino)benzoxazole-4-carboxamide Trihydrochloride]",6.61
6,"COCCNc1nc2c(C(=O)N[C@H]3C[C@H]4CCC[C@@H](C3)N4C)cccc2o1 [Example 38, Endo-N-(9-Methyl-9-azabicyclo[3.3.1]nonan-3-yl)-2-(2-methoxyethylamino)benzoxazole-4-carboxamide Hydrochloride]",8.12
7,"COCCCNc1nc2c(C(=O)NC3CC4CCCC(C3)N4C)cccc2o1 (stereo not drawn) [Example 39, Endo-N-(9-Methyl-9-azabicyclo[3.3.1]nonan-3-yl)-2-(3-methoxypropylamino)benzoxazole-4-carboxamide Hydrochloride]",7.88
8,"CN1[C@@H]2CCC[C@H]1C[C@@H](NC(=O)c1cccc3oc(NCCCO)nc13)C2 [Example 40, Endo-N-(9-Methyl-9-azabicyclo[3.3.1]nonan-3-yl)-2-(3-hydroxypropylamino)benzoxazole-4-carboxamide Hydrochloride]",8.11
9,"C[C@H]1CNCCN1c1nc2c(C(=O)N[C@H]3C[C@H]4CCC[C@@H](C3)N4C)cccc2o1 [Example 41a, Endo-N-(9-Methyl-9-azabicyclo[3.3.1]nonan-3-yl)-2-[(S)-2-methylpiperazin-1-yl]benzoxazole-4-carboxamide Hydrochloride]",7.85
10,"C[C@@H]1CNCCN1c1nc2c(C(=O)N[C@H]3C[C@H]4CCC[C@@H](C3)N4C)cccc2o1 [Example 41b, Endo-N-(9-Methyl-9-azabicyclo[3.3.1]nonan-3-yl)-2-[(R)-2-methylpiperazin-1-yl]benzoxazole-4-carboxamide Hydrochloride]",6.90
11,"CN1[C@@H]2CCC[C@H]1C[C@@H](NC(=O)c1cccc3oc(N4CCN(c5ncccn5)CC4)nc13)C2 [Example 42, Endo-N-(9-Methyl-9-azabicyclo[3.3.1]nonan-3-yl)-2-(4-(pyrimidin-2-yl)piperazin-1-yl)benzoxazole-4-carboxamide Hydrochloride]",7.96
12,"CN1CC2CC(NC(=O)c3cccc4oc(N5CCOCC5)nc34)CC(C1)N2C (stereo not drawn) [Example 43, Exo-N-(3,9-Dimethyl-3,9-diazabicyclo[3.3.1]nonan-7-yl)-2-morpholinobenzoxazole-4-carboxamide Hydrochloride]",6.32
13,"CN1[C@@H]2COC[C@H]1C[C@@H](NC(=O)c1cccc3oc(N4CCOCC4)nc13)C2 [Example 44, Endo-N-(9-Methyl-3-oxa-9-azabicyclo[3.3.1]nonan-7-yl)-2-morpholinobenzoxazole-4-carboxamide Hydrochloride]",6.49
14,"CN1[C@@H]2COC[C@H]1C[C@@H](NC(=O)c1cccc3oc(Nc4ccccc4)nc13)C2 [Example 45, Endo-N-(9-Methyl-3-oxa-9-azabicyclo[3.3.1]nonan-7-yl)-2-(phenylamino)benzoxazole-4-carboxamide Hydrochloride]",7.65
15,"CN(C)C(=O)CNc1nc2c(C(=O)N[C@H]3C[C@H]4CCC[C@@H](C3)N4C)cccc2o1 [Example 47, Endo-N-(9-Methyl-9-azabicyclo[3.3.1]nonan-3-yl)-2-(2-(dimethylamino)-2-oxoethylamino)benzoxazole-4-carboxamide Dihydrochloride]",6.86
16,"CC(C)[C@H]1COCCN1c1nc2c(C(=O)NC3CC4CCCC(C3)N4C)cccc2o1 (stereo partly drawn) [Example 48, Endo-N-(9-Methyl-9-azabicyclo[3.3.1]nonan-3-yl)-2-((S)-3-isopropylmorpholino)benzoxazole-4-carboxamide Hydrochloride]",8.22
17,"CN1C[C@H]2C[C@@H](NC(=O)c3cccc4oc(Nc5ccccc5)nc34)C[C@@H](C1)N2C [Example 51, Endo-N-(3,9-Dimethyl-3,9-diazabicyclo[3.3.1]nonan-7-yl)-2-(phenylamino)benzoxazole-4-carboxamide Hydrochloride]",6.67
18,"CN1[C@@H]2CCC[C@H]1C[C@@H](NC(=O)c1cccc3oc(N4CCC[C@H]4C(N)=O)nc13)C2 [Example 53, Endo-N-(9-Methyl-9-azabicyclo[3.3.1]non-3-yl)-2-((S)-2-carbamoylpyrrolidin-1-yl)benzoxazole-4-carboxamide Hydrochloride]",6.67
19,"CN1[C@@H]2CCC[C@H]1C[C@@H](NC(=O)c1cccc3oc(N4CCn5c(nnc5C(F)(F)F)C4)nc13)C2 [Example 54, Endo-N-(9-Methyl-9-azabicyclo[3.3.1]nonan-3-yl)-2-(3-(trifluoromethyl)-5,6-dihydro-[1,2,4]triazolo[4,3-a]pyrazin-7(8H)-yl)benzoxazole-4-carboxamide Hydrochloride]",6.93
20,"CN1[C@@H]2CCC[C@H]1C[C@@H](NC(=O)c1cccc3oc(=O)[nH]c13)C2 [Example 56, Endo-N-(9-Methyl-9-azabicyclo[3.3.1]nonan-3-yl)-2-oxo-2,3-dihydrobenzoxazole-4-carboxamide Hydrochloride]",7.14
21,"C[C@H]1CNCCN1c1nc2c(C(=O)NC3CC4CCCC(C3)N4C)cc(Cl)cc2o1 (stereo partly drawn) [Example 57, Endo-N-(9-methyl-9-azabicyclo[3.3.1]nonan-3-yl)-6-chloro-2-((S)-2-methylpiperazin-1-yl)benzoxazole-4-carboxamide Hydrochloride]",7.94
22,"CN1CCN(c2nc3c(C(=O)N[C@H]4C[C@H]5CCC[C@@H](C4)N5C)cc(Cl)cc3o2)CC1 [Example 58, Endo-N-(9-methyl-9-azabicyclo[3.3.1]nonan-3-yl)-6-chloro-2-(4-methylpiperazin-1-yl)benzoxazole-4-carboxamide Hydrochloride]",7.92
23,"COc1ccc(Nc2nc3c(C(=O)N[C@H]4C[C@H]5CCC[C@@H](C4)N5C)cccc3o2)cc1 [Example 59, Endo-N-(9-methyl-9-azabicyclo[3.3.1]nonan-3-yl)-2-(4-methoxyphenylamino)benzoxazole-4-carboxamide Hydrochloride]",8.12
